Measured values published in patent publication US20220135663A1, “Method of treatment of Chronic Low Back Pain” (Pfizer Inc., priority 2019, published 2022).

What was measured:
[1] = system: adult patients with chronic low back pain; assay: Study 1059, Phase 3: efficacy (LBPI, RMDQ) in chronic low back pain; format: in vivo, human; conditions: 100-300 mg daily oral
Experimental: The Low Back Pain Intensity (LBPI) measure is assessed with an 11-point numeric rating scale ranging from 0 (no pain) to 10 (worst possible pain). The LBPI score can be the daily average LBPI score.
The Roland Morris Disability Questionnaire (RMDQ) is an index of how well subjects with low back pain are able to function with regard to daily activities (Roland M, Fairbank. The Roland-Morris Questionnaire and the Oswestry Disability Questionnaire. Spine. 2000; 25 (4)3115-3124). It is a low back pain-specific assessment of physical function with scores ranging from 0 to 24 (lower scores indicate better function).
(§1) Patients were also required to have documented history of previous inadequate treatment response to at least 3 different categories of agents commonly used and generally considered effective for the treatment of chronic low back pain. Patients were required to discontinue all medications for the treatment of chronic low back pain during the primary efficacy assessment period (up to Week 16).
Approximately 1800 patients were planned to be randomized initially in a 2:2:2:3 ratio to 1 of 4 following treatment groups:
1. Placebo administered SC at an 8-week interval plus placebo matching tramadol PR up to Week 16. At the Week 16 visit, patients in this group were switched in a blinded fashion in a 1:1 ratio to either tanezumab 5 mg or tanezumab 10 mg administered SC at an 8 week interval plus placebo matching tramadol PR to Week 56;
2. Tanezumab 5 mg SC administered at an 8-week interval plus placebo matching tramadol PR to Week 56;
3. Tanezumab 10 mg SC administered at an 8-week interval plus placebo matching tramadol PR to Week 56;
4. Oral tramadol PR 100-300 mg daily plus placebo administered SC at an 8-week interval to Week 56.
To achieve the initial randomization and intended re-randomization at Week 16 for placebo patients, a randomization ratio 1:1:2:2:3 for placebo→tanezumab 5 mg (at Week 16), placebo→tanezumab 10 mg (at Week 16), tanezumab 5 mg, tanezumab 10 mg, and tramadol PR was used at the beginning of the trial.
Table 2 summarizes the requirements for analgesic medication usage prior to Screening and the requirements for LBPI and Patient's Global Assessment (PGA) of CLBP. The current study enrolled patients who were more refractory to standard of care treatments for CLBP and had higher LBPI scores at Baseline.

[2] = system: adult patients with chronic low back pain; assay: Study 1059: adverse events and adjudicated joint safety; format: in vivo, human
Description: For subjects who are identified with a possible or probable joint event (i.e., rapidly progressive osteoarthritis, subchondral insufficiency fractures, spontaneous osteonecrosis of the knee (SPONK), primary osteonecrosis or pathological fracture) and subjects undergoing total joint replacement for any reason, all images and other source documentation may be provided to the blinded Adjudication Committee for review and adjudication of the event. The Adjudication Committee's assessment of the event may represent the final classification of the event.
as §1

`COc1cccc(C2(O)CCCCC2CN(C)C)c1` (centres unmarked) [Tramadol PR, tramadol, reference compound] was tested, and the “LBPI change from Baseline to Week 2, Difference vs. plc” value [1] was −0.19, the “LBPI change from Baseline to Week 16, LS Mean” value [1] was −2.81 and the “Proportion of patients with ≥50% improvement in LBPI at Week 16” value [1] was “(42.8) %”. The “RMDQ change from Baseline to Week 16, Difference vs. plc” value [1] was −0.26, the “RMDQ change from Baseline to Week 16, LS Mean” value [1] was −5.21 and the “percentage of patients achieving ≥30% improvement in LBPI at week 16” value [1] was 57.9%. The “≥30% improvement in LBPI at week 16, odds ratio versus placebo” value [1] was 1.08, the “≥50% improvement in LBPI at Week 16, OR vs. plc” value [1] was 1.25 and the “incidence of composite joint safety endpoint” value ([2]; 100-300 mg daily oral) was 0.2%. For the same compound, the “observation-time adjusted rate of composite joint safety endpoint” value ([2]; 100-300 mg daily oral) was 1.9 events/1000 patient-years, the “patients with joint safety event adjudicated to RPOA Type 1” value ([2]; 100-300 mg daily oral) was 0.2% and the “patients with joint safety event adjudicated to RPOA Type 1, number” value ([2]; 100-300 mg daily oral) was 1 patients. For the same compound, the “patients with adjudicated event of RPOA” value ([2]; tramadol PR-treated patients) was 0.2% and the “patients with joint safety event requiring adjudication” value ([2]; tramadol PR-treated patients, 80-week observation period) was 0.7%.
